“And” between values parts separate entries of the source, which are not always exact repeats. Equal entries are not always repeated.
Tests used:
[1] = molecular target: T1, recombinant human mGluR4a receptors (Homo sapiens, UniProt Q14833); assay: mGluR4 assay on HEK-expressing human mGluR4 (fluorescent cell based Ca2+ mobilization assay, FLIPR); settings: HEK-293 cells expressing hmGluR4; enhancement of EC25 glutamate response; mean of at least three independent experiments in duplicate; read-out: Ca^2+ Flux (mean EC50)
T1 construct: expressed in transfected cells
From the text: mGluR4 Assay on HEK-Expressing Human mGluR4 The compounds of the present invention are positive allosteric modulators of mGluR4 receptor. Their activity was examined on recombinant human mGluR4a receptors by detecting changes in intracellular Ca^2+ concentration, using the fluorescent Ca^2+-sensitive dye Fluo4-(AM) and a Fluorometric Imaging Plate Reader (FLIPR, Molecular Devices, Sunnyvale, Calif.). The cDNA encoding the human metabotropic glutamate receptor (hmGluR4), (accession number NM_000841.1, NCBI Nucleotide database browser), was subcloned into an expression vector containing also the hygromycin resistance gene. In parallel, the cDNA encoding a G protein allowing redirection of the activation signal to intracellular calcium flux was subcloned into a different expression vector containing also the puromycin resistance gene. Transfection of both these vectors into HEK293 cells with PolyFect reagent (Qiagen) according to supplier's protocol, and hygromycin and puromycin treatment allowed selection of antibiotic resistant cells which had integrated stably one or more copies of the plasmids. Positive cellular clones expressing hmGluR4 were identified in a functional assay measuring changes in calcium fluxes in response to glutamate or selective known mGluR4 orthosteric agonists and antagonists. HEK-293 cells expressing hmGluR4 were maintained in media containing DMEM, dialyzed Fetal Calf Serum (10%), Glutamax™ (2 mM), Penicillin (100 units/mL), Streptomycin (100 μg/mL), Geneticin (100 μg/mL) and Hygromycin-B (40 μg/mL) and puromycin (1 μg/mL) at 37° C./5% CO2. Human mGluR4HEK-293 cells were plated out 24 hours prior to FLIPR^384 assay in black-walled, clear-bottomed, poly-L-ornithine-coated 384-well plates at a density of 25,000 cells/well in a glutamine/glutamate free DMEM medium containing foetal bovine serum (10%), penicillin (100 units/mL) and streptomycin (100 μg/mL) at 37° C./5% CO2. On the day of the assay, the medium was aspirated and the cells were loaded with a 3 μM solution of Fluo4-AM (LuBioScience, Lucerne, Switzerland) in 0.03% pluronic acid. After 1 hour at 37° C./5% CO2, the non incorporated dye was removed by washing cell plate with the assay buffer and the cells were left in the dark at room temperature for […] before testing. All assays were performed in a pH 7.4 buffered-solution containing 20 mM HEPES, 143 mM NaCl, 6 mM KCl, 1 mM MgSO4, 1 mM CaCl2, 0.125 mM sulfapyrazone and 0.1% glucose. After 10 s of basal fluorescence recording, various concentrations of the compounds of the invention were added to the cells. Changes in fluorescence levels were first monitored for 180 s in order to detect any agonist activity of the compounds. Then the cells were stimulated by an EC25 glutamate concentration for an additional 110 s in order to measure enhancing activities of the compounds of the invention. EC25 glutamate concentration is the concentration giving 25% of the maximal glutamate response. The concentration-response curves of representative compounds of the present invention were generated using the Prism GraphPad software (Graph Pad Inc, San Diego, USA). The curves were fitted to a four-parameter logistic equation: (Y=Bottom+(Top−Bottom)/(1+10^((Log EC50−X)*Hill Slope) allowing the determination of EC50 values. The Table 3 below represents the mean EC50 obtained from at least three independent experiments of selected molecules performed in duplicate.

T1 sequence (Q14833 33-912): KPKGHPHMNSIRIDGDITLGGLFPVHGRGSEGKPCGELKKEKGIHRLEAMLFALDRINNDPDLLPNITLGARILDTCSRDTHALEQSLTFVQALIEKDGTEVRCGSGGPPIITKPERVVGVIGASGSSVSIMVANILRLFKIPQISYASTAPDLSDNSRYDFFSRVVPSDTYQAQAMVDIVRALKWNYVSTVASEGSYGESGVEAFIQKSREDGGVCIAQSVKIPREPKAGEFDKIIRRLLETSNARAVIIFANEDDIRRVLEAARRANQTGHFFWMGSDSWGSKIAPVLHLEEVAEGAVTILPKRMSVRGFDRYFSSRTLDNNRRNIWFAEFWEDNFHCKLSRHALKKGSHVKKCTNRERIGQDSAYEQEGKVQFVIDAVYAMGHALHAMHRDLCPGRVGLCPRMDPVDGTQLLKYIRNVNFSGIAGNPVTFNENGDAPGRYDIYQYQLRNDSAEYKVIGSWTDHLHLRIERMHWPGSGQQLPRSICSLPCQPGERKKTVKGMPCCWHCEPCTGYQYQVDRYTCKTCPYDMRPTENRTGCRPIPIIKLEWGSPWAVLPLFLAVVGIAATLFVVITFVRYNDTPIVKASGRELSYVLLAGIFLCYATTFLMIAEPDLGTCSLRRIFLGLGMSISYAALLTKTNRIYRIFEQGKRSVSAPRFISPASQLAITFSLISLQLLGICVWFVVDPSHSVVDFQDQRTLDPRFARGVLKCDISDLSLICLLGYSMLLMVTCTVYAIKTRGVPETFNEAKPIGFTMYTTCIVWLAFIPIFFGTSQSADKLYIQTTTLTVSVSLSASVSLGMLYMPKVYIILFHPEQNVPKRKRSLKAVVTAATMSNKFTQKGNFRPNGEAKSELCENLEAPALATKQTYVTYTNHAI

SMILES | EC50 [1] [nM] | melting point
COc1ccnc(Nc2csc(-c3cn[nH]c3)n2)n1 [Compound 1-5, N-(4-Methoxypyrimidin-2-yl)-2-(1H-pyrazol-4-yl)thiazol-4-amine] | 100 to 1000 | 250 to 252 °C
c1ccc(Nc2csc(-c3cn[nH]c3)n2)nc1 [Compound 1-1, 2-(1H-Pyrazol-4-yl)-N-(pyridin-2-yl)thiazol-4-amine] | < 100 | 207 to 209 °C and 209 to 210 °C
FC(F)(F)c1n[nH]cc1-c1nc(Nc2ncccn2)cs1 [Compound 1-11, N-(Pyrimidin-2-yl)-2-(3-(trifluoromethyl)-1H-pyrazol-4-yl)thiazol-4-amine] | < 100 | –
c1cnc(Nc2csc(-c3c[nH]nc3C3CC3)n2)nc1 [Compound 1-10, 2-(3-Cyclopropyl-1H-pyrazol-4-yl)-N-(pyrimidin-2-yl)thiazol-4-amine] | < 100 | 241 °C
c1ccc(Nc2nsc(-c3cn[nH]c3)n2)nc1 [Compound 1-2, 5-(1H-Pyrazol-4-yl)-N-(pyridin-2-yl)-1,2,4-thiadiazol-3-amine] | 100 to 1000 | –
c1cnc(Nc2csc(-c3cn[nH]c3)n2)nc1 [Compound 1-7, 2-(1H-Pyrazol-4-yl)-N-(pyrimidin-2-yl)thiazol-4-amine] | < 100 | 217 °C (dec.)
Fc1cccc(Nc2csc(-c3cn[nH]c3)n2)n1 [Compound 1-3, N-(6-Fluoropyridin-2-yl)-2-(1H-pyrazol-4-yl)thiazol-4-amine] | < 100 | 238 to 240 °C
c1ccc(Nc2csc(-c3c[nH]nc3C3CC3)n2)nc1 [Compound 1-9, 2-(3-Cyclopropyl-1H-pyrazol-4-yl)-N-(pyridin-2-yl)thiazol-4-amine] | < 100 | 141.3 °C
Cc1cccc(Nc2csc(-c3cn[nH]c3)n2)n1 [Compound 1-6, N-(6-Methylpyridin-2-yl)-2-(1H-pyrazol-4-yl)thiazol-4-amine] | 100 to 1000 | –
Cc1ccnc(Nc2csc(-c3cn[nH]c3)n2)n1 [Compound 1-4, N-(4-Methylpyrimidin-2-yl)-2-(1H-pyrazol-4-yl)thiazol-4-amine] | 100 to 1000 | 230 to 232 °C
FC(F)(F)c1n[nH]cc1-c1nc(Nc2ccccn2)cs1 [Compound 1-8, N-(Pyridin-2-yl)-2-(3-(trifluoromethyl)-1H-pyrazol-4-yl)thiazol-4-amine] | 100 to 1000 | 204 to 206 °C
